# Test results: PubChem BioAssay AID330 (DTP/NCI, 2004)
# Values joined by “and” are separate entries in the source; they are usually repeats but may differ in a detail not shown here. Equal values may be shown once. Toxic doses and inconclusive results are not listed.
# System: P388 leukemia ip, CD2F1 mice, survival T/C
# Test: NCI In Vivo Anticancer Drug Screen. Data for tumor model P388 Leukemia (intraperitoneal) in CD2F1 (CDF1) mice
# Conditions: endpoint: median survival time, higher = longer survival
# Procedure, shortened: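 Mice carrying the transplanted tumor received test compound or vehicle. Survival was recorded in each group, and the value is the treated-group measurement divided by that of the vehicle-treated control group.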
# [1] = dose: 25.0 mg/kg/injection, schedule: Q01DX009 (ip), vehicle: saline with Tween-80
# [2] = dose: 50.0 mg/kg/injection, schedule: Q01DX009 (ip), vehicle: saline
# [3] = dose: 50.0 mg/kg/injection, schedule: Q01DX005 (ip), vehicle: saline
# [4] = dose: 100.0 mg/kg/injection, schedule: Q01DX005 (ip), vehicle: saline
# [5] = dose: 200.0 mg/kg/injection, schedule: Q01DX005 (ip), vehicle: saline
# [6] = dose: 50.0 mg/kg/injection, schedule: Q01DX009 (ip), vehicle: saline with Tween-80
# [7] = dose: 100.0 mg/kg/injection, schedule: Q01DX009 (ip), vehicle: saline with Tween-80
# [8] = dose: 60.0 mg/kg/injection, schedule: Q01DX005 (ip), vehicle: saline with Tween-80
# [9] = dose: 120.0 mg/kg/injection, schedule: Q01DX005 (ip), vehicle: saline with Tween-80
# [10] = dose: 50.0 mg/kg/injection, schedule: Q01DX005 (ip), vehicle: saline with Tween-80
# [11] = dose: 100.0 mg/kg/injection, schedule: Q01DX005 (ip), vehicle: saline with Tween-80
# [12] = dose: 200.0 mg/kg/injection, schedule: Q01DX005 (ip), vehicle: saline with Tween-80
# [13] = dose: 240.0 mg/kg/injection, schedule: Q01DX005 (ip), vehicle: saline with Tween-80
# [14] = dose: 50.0 mg/kg/injection, schedule: Q01DX009 (ip), vehicle: Klucel (hydroxypropylcellulose) (HPC)
# [15] = dose: 100.0 mg/kg/injection, schedule: Q01DX009 (ip), vehicle: Klucel (hydroxypropylcellulose) (HPC)
# [16] = dose: 100.0 mg/kg/injection, schedule: Q01DX009 (ip), vehicle: saline
compound,measurement,setting,value
CCCCc1ccc(Nc2c(C(=O)O)cnc3cc4c(cc23)OCO4)cc1,T/C,"dose: 60.0 mg/kg/injection, schedule: Q01DX005 (ip), vehicle: Klucel + Tween-80",103 % of control
same,T/C,"dose: 120.0 mg/kg/injection, schedule: Q01DX005 (ip), vehicle: Klucel + Tween-80",100 % of control
same,T/C,"dose: 240.0 mg/kg/injection, schedule: Q01DX005 (ip), vehicle: Klucel + Tween-80",97 % of control
Cc1ccc(S(=O)(=O)S(=O)(=O)c2ccc(C)cc2)cc1,T/C,"dose: 100.0 mg/kg/injection, schedule: Q04DX002 (ip), vehicle: saline with Tween-80",96 % of control
same,T/C,"dose: 200.0 mg/kg/injection, schedule: Q04DX002 (ip), vehicle: saline with Tween-80",99 % of control
same,T/C,"dose: 400.0 mg/kg/injection, schedule: Q04DX002 (ip), vehicle: saline with Tween-80",104 % of control
CC(=O)c1c(O)c(C)c(O)c2c1OC1=CC(=O)C(C(C)=O)C(=O)C12C (stereo unspecified),T/C,"dose: 6.25 mg/kg/injection, schedule: Q01DX009 (ip), vehicle: saline with Tween-80",100 % of control and 122 % of control
same,T/C,"dose: 12.5 mg/kg/injection, schedule: Q01DX009 (ip), vehicle: saline with Tween-80",115 % of control and 97 % of control
same,T/C,"dose: 12.5 mg/kg/injection, schedule: Q01DX009 (ip), vehicle: saline",97 % of control
same,T/C,[1],101 % of control and 103 % of control (2×)
same,T/C,[2],109 % of control and 111 % of control
NC(=O)C1(N(CCO)CCO)CCCC1,T/C,[3],104 % of control
same,T/C,[4],98 % of control
same,T/C,[5],105 % of control
NNC(=O)NN1C(=O)c2cc(S(=O)(=O)O)cc3c(N)c(S(=O)(=O)O)cc(c23)C1=O,T/C,[3],98 % of control
same,T/C,[4],104 % of control
same,T/C,[5],99 % of control
COc1cc2ccnc(/C=N\NC(N)=S)c2cc1OC,T/C,[1],98 % of control
same,T/C,[6],101 % of control
same,T/C,[7],107 % of control
same,T/C,"dose: 200.0 mg/kg/injection, schedule: Q01DX009 (ip), vehicle: saline with Tween-80",118 % of control
CC(NS(=O)(=O)c1ccccc1)c1ccccc1 (stereo unspecified),T/C,"dose: 100.0 mg/kg/injection, schedule: Q04DX003 (ip), vehicle: Klucel (hydroxypropylcellulose) (HPC)",100 % of control
same,T/C,"dose: 200.0 mg/kg/injection, schedule: Q04DX003 (ip), vehicle: Klucel (hydroxypropylcellulose) (HPC)",106 % of control
same,T/C,"dose: 400.0 mg/kg/injection, schedule: Q04DX003 (ip), vehicle: Klucel (hydroxypropylcellulose) (HPC)",113 % of control
COc1ccc(C(C#N)C(=O)C(=O)Nc2ccc(C)cc2C)cc1OC (stereo unspecified),T/C,[8],95 % of control
same,T/C,[9],100 % of control
CCOc1ccccc1NC(=O)/C(Cl)=C(\Cl)C(=O)O,T/C,[8],109 % of control
same,T/C,[9],107 % of control
Cc1ccc(S(=O)(=O)Cl)cc1Cl,T/C,[1],101 % of control
same,T/C,[6],102 % of control
same,T/C,[7],101 % of control
Cc1nc(N)nc(N)c1N1CCN(c2ccc(C(=O)NC(CCC(=O)O)C(=O)O)cc2)CC1 (stereo unspecified),T/C,"dose: 1.56 mg/kg/injection, schedule: Q01DX005 (ip), vehicle: water",111 % of control
same,T/C,"dose: 12.5 mg/kg/injection, schedule: Q01DX005 (ip), vehicle: distilled water + Tween-80",168 % of control
same,T/C,"dose: 12.5 mg/kg/injection, schedule: Q01DX005 (ip), vehicle: water",150 % of control
same,T/C,"dose: 25.0 mg/kg/injection, schedule: Q01DX005 (ip), vehicle: distilled water + Tween-80",176 % of control
same,T/C,"dose: 25.0 mg/kg/injection, schedule: Q01DX005 (ip), vehicle: water",176 % of control
same,T/C,"dose: 50.0 mg/kg/injection, schedule: Q01DX005 (ip), vehicle: water",222 % of control
same,T/C,"dose: 100.0 mg/kg/injection, schedule: Q01DX005 (ip), vehicle: distilled water + Tween-80",87 % of control
Clc1nc(C(Cl)Cl)nc2ccccc12,T/C,"dose: 30.0 mg/kg/injection, schedule: Q01DX005 (ip), vehicle: saline with Tween-80",106 % of control
same,T/C,[8],110 % of control and 111 % of control
same,T/C,[9],111 % of control and 113 % of control
CC(C)(C)[Si](C)(C)O[C@H]1C[C@@H](O[Si](C)(C)C(C)(C)C)C=C1S(=O)(=O)c1ccccc1,T/C,"dose: 12.5 mg/kg/injection, schedule: Q01DX005 (ip), vehicle: Klucel (hydroxypropylcellulose) (HPC)",101 % of control
same,T/C,"dose: 25.0 mg/kg/injection, schedule: Q01DX005 (ip), vehicle: Klucel (hydroxypropylcellulose) (HPC)",107 % of control
same,T/C,"dose: 50.0 mg/kg/injection, schedule: Q01DX005 (ip), vehicle: Klucel (hydroxypropylcellulose) (HPC)",111 % of control
Cc1cc2c(C(C)C)c(O)c(O)c(C=NCCO)c2c(O)c1-c1c(C)cc2c(C(C)C)c(O)c(O)c(C=NCCO)c2c1O,T/C,[10],113 % of control
same,T/C,"dose: 75.0 mg/kg/injection, schedule: Q01DX005 (ip), vehicle: saline with Tween-80",120 % of control
same,T/C,[11],120 % of control
CC(=O)OC1=C2C(C)(C)OC3CC(=O)OCC23C2CCC3(C)C(c4ccoc4)OC(=O)C4OC43C2(C)C1=O (stereo unspecified),T/C,"dose: 0.5 mg/kg/injection, schedule: Q01DX009 (ip), vehicle: saline + alcohol",113 % of control
same,T/C,"dose: 1.0 mg/kg/injection, schedule: Q01DX009 (ip), vehicle: saline + alcohol",110 % of control
same,T/C,"dose: 2.0 mg/kg/injection, schedule: Q01DX009 (ip), vehicle: saline + alcohol",107 % of control
same,T/C,"dose: 4.0 mg/kg/injection, schedule: Q01DX009 (ip), vehicle: saline + alcohol",101 % of control
Cc1cc(Cl)c2c(N(C)C)cccc2n1,T/C,"dose: 50.0 mg/kg/injection, schedule: Q01DX009 (ip), vehicle: acid diluted with saline",106 % of control
same,T/C,"dose: 100.0 mg/kg/injection, schedule: Q01DX009 (ip), vehicle: acid diluted with saline",93 % of control
O=C(O)C1CCCC2C(O)CCC(=O)C12 (stereo unspecified),T/C,"dose: 100.0 mg/kg/injection, schedule: Q04DX003 (ip), vehicle: saline",105 % of control
same,T/C,"dose: 200.0 mg/kg/injection, schedule: Q04DX003 (ip), vehicle: saline",110 % of control
same,T/C,"dose: 400.0 mg/kg/injection, schedule: Q04DX003 (ip), vehicle: saline",105 % of control
COc1ccc(CCNC(=O)C(=O)c2c[nH]c3ccccc23)cc1OC,T/C,[10],90 % of control
same,T/C,[11],88 % of control
same,T/C,[12],89 % of control
COC(=O)CCCNC(C)C,T/C,"dose: 25.0 mg/kg/injection, schedule: Q01DX009 (ip), vehicle: water",97 % of control
same,T/C,"dose: 50.0 mg/kg/injection, schedule: Q01DX009 (ip), vehicle: water",100 % of control
same,T/C,"dose: 100.0 mg/kg/injection, schedule: Q01DX009 (ip), vehicle: water",98 % of control
same,T/C,"dose: 200.0 mg/kg/injection, schedule: Q01DX009 (ip), vehicle: water",99 % of control
same,T/C,"dose: 400.0 mg/kg/injection, schedule: Q01DX009 (ip), vehicle: water",99 % of control
CN(C)c1ccc2[nH]c3ccccc3c2c1,T/C,[8],107 % of control
same,T/C,[9],108 % of control
same,T/C,[13],121 % of control
CCCCCCCC[As](CCCCCCCC)SC1OC(COC(C)=O)C(OC(C)=O)C(OC(C)=O)C1OC(C)=O (stereo unspecified),T/C,[14],102 % of control
same,T/C,[15],90 % of control
CC(O)Cn1nnc2ccccc2c1=O (stereo unspecified),T/C,[10],107 % of control
same,T/C,[11],105 % of control
same,T/C,[12],112 % of control
COc1ccc2c(NCCCCCCCCNc3c4ccc(OC)cc4nc4c(OC)cccc34)c3cccc(OC)c3nc2c1,T/C,"dose: 0.63 mg/kg/injection, schedule: Q01DX009 (ip), vehicle: other",166 % of control
same,T/C,"dose: 2.5 mg/kg/injection, schedule: Q01DX009 (ip), vehicle: other",120 % of control
same,T/C,"dose: 5.0 mg/kg/injection, schedule: Q01DX009 (ip), vehicle: other",86 % of control
CCOC([O-])=N/C(=N/[n+]1ccccc1)c1ccccc1,T/C,[14],107 % of control
same,T/C,[15],96 % of control
same,T/C,"dose: 200.0 mg/kg/injection, schedule: Q01DX009 (ip), vehicle: Klucel (hydroxypropylcellulose) (HPC)",100 % of control
CCNCC(O)c1cccc(C(F)(F)F)c1 (stereo unspecified),T/C,[2],102 % of control
same,T/C,[16],109 % of control
CC1=C(CN(CC(=O)O)CC(=O)O)C(=O)C(C(C)C)=C/C1=C(\c1ccccc1S(=O)(=O)O)c1cc(C(C)C)c(O)c(CN(CC(=O)O)CC(=O)O)c1C,T/C,[2],108 % of control
same,T/C,[16],104 % of control
same,T/C,"dose: 200.0 mg/kg/injection, schedule: Q01DX009 (ip), vehicle: saline",103 % of control
CC(C)(C)C(=O)CC(=O)C(F)(F)C(F)(F)C(F)(F)F.CC(C)(C)C(=O)CC(=O)C(F)(F)C(F)(F)C(F)(F)F.CC(C)(C)C(=O)CC(=O)C(F)(F)C(F)(F)C(F)(F)F.[Gd],T/C,[8],105 % of control
same,T/C,[9],110 % of control
same,T/C,[13],105 % of control
